According to US20090252013A1, “HYDRAZIDE CHELATE COMPLEX COMPOUND, OPTICAL RECORDING MEDIUM USING THE COMPOUND AND RECORDING METHOD THEREOF” (Mitsubishi Chemical Corporation, priority 2006, published 2009):

What was measured:
[1] = Solubility test in coating solvent (2,2,3,3-tetrafluoropropanol); assay type: physicochemical; details: 20° C., result in words
Description: The dissolution is determined by whether or not residual crystals of the compound remain in the solvent when the compound and TFP are mixed with a predetermined concentration.
Then, the solution was dropped to filter paper (“No. 5C” quantitative filter paper manufactured by Toyo Roshi Kaisha), and dried at room temperature for 24 hours. It was visually observed whether or not crystal residues of undissolved components were present on the filter paper.

[2] = Light fastness test (xenon lamp) of dye recording layer; assay type: physicochemical; details: xenon lamp 0.55 W/m^2, 40 hours, 58° C., humidity 50%, absorbance at absorption maximum
Description: First, a solution containing a hydrazide chelate complex compound is applied over a substrate such that the film thickness after drying is about 50 nm, followed by drying, thus obtaining a layer containing the hydrazide chelate complex compound. The layer containing the resulting dye is irradiated with a xenon lamp (intensity 0.55 W/m^2) for a predetermined period of time under conditions at a temperature of 58° C. and a humidity of 50%. The absorbances at the absorption maximum wavelength before and after the irradiation are compared to obtain the dye residual ratio.
The resulting compound (A-6) was dissolved in 2,2,3,3-tetrafluoropropanol at a concentration of 1.0% by weight, and minute foreign particles were removed by filtration. Then, the resulting solution was dropped to an injection-molded polycarbonate substrate with a diameter of 120 mm and a thickness of 1.2 mm and coating was performed by spin coating (4,900 rpm), followed by drying at 80° C. for 30 minutes. […]
Under the conditions of temperature 58° C. and humidity 50%, a recording layer was irradiated with a xenon lamp at an irradiation intensity of 0.55 W/m^2 for 40 hours. Then, the dye residual ratio in the recording layer was determined on the basis of the absorbances before and after irradiation at the absorption maximum wavelength.

| SMILES | solubility in a coating solvent at a concentration of 0.7% by weight [1] | solubility in a coating solvent at a concentration of 1.0% by weight [1] | dye residual ratio (after 40-hour light fastness test) [2] [%] |
| --- | --- | --- | --- |
| CN1C(=CC=[N+]2N=C(c3ccccc3)[O][Cu-2]23[O]C(c2ccccc2)=N[N+]3=CC=C2N(C)c3ccccc3C2(C)C)C(C)(C)c2ccccc21 (centres unmarked) [Compound A-2] | completely dissolved | the amount of insolubles was slight | – |
| CCOC(=O)CC1=N[N+](=CC=C2N(C)c3ccccc3C2(C)C)[Co-2]2([O]1)[O]C(CC(=O)OCC)=N[N+]2=CC=C1N(C)c2ccccc2C1(C)C (centres unmarked) [Compound A-6] | completely dissolved | completely dissolved | 90 |
| CCOC(=O)CC1=N[N+](=CC=C2N(CC)c3ccccc3C2(C)Cc2ccccc2)[Co-2]2([O]1)[O]C(CC(=O)OCC)=N[N+]2=CC=C1N(CC)c2ccccc2C1(C)Cc1ccccc1 (centres unmarked) [Compound A-11] | completely dissolved | completely dissolved | 91 |
| CCN1C(=CC=[N+]2N=C(c3ccccc3)[O][Co-2]23[O]C(c2ccccc2)=N[N+]3=CC=C2N(CC)c3ccc(OC)cc3C2(C)C)C(C)(C)c2cc(OC)ccc21 (centres unmarked) [Compound A-86] | completely dissolved | completely dissolved | – |
| CCN1C(=CC=[N+]2N=C(c3cccc(OC)c3)[O][Co-2]23[O]C(c2cccc(OC)c2)=N[N+]3=CC=C2N(CC)c3ccc(OC)cc3C2(C)C)C(C)(C)c2cc(OC)ccc21 (centres unmarked) [Compound A-87] | completely dissolved | completely dissolved | – |
| CCOc1ccccc1C1=N[N+](=CC=C2N(CC)c3c(ccc4ccccc34)C2(C)C)[Co-2]2([O]1)[O]C(c1ccccc1OCC)=N[N+]2=CC=C1N(CC)c2c(ccc3ccccc23)C1(C)C (centres unmarked) [Compound A-88] | completely dissolved | completely dissolved | – |
| CCN1C(=CC=[N+]2N=C(c3ccccc3OC)[O][Co-2]23[O]C(c2ccccc2OC)=N[N+]3=CC=C2N(CC)c3ccc(OC)cc3C2(C)Cc2ccccc2)C(C)(Cc2ccccc2)c2cc(OC)ccc21 (centres unmarked) [Compound A-150] | completely dissolved | completely dissolved | – |
| CCN1C(=CC=[N+]2N=C(c3ccc(C(=O)OC)cc3)[O][Co-2]23[O]C(c2ccc(C(=O)OC)cc2)=N[N+]3=CC=C2N(CC)c3ccc(OC)cc3C2(C)Cc2cccc(F)c2)C(C)(Cc2cccc(F)c2)c2cc(OC)ccc21 (centres unmarked) [Compound A-152] | completely dissolved | completely dissolved | – |
| CCN(CC)C(=O)c1ccc(C2=N[N+](=CC=C3N(CC)c4ccc(OC)cc4C3(C)Cc3ccccc3)[Co-2]3([O]2)[O]C(c2ccc(C(=O)N(CC)CC)cc2)=N[N+]3=CC=C2N(CC)c3ccc(OC)cc3C2(C)Cc2ccccc2)cc1 (centres unmarked) [Compound A-159] | completely dissolved | completely dissolved | – |
| CCN1C(=CC=[N+]2N=C(c3ccc(C(=O)OC)cc3)[O][Co-2]23[O]C(c2ccc(C(=O)OC)cc2)=N[N+]3=CC=C2N(CC)c3ccc(OC)cc3C2(C)Cc2ccccc2)C(C)(Cc2ccccc2)c2cc(OC)ccc21 (centres unmarked) [Compound A-186] | completely dissolved | completely dissolved | – |
| CCCN(CCC)S(=O)(=O)c1ccc(C2=N[N+](=CC=C3N(CC)c4ccc(OC)cc4C3(C)Cc3ccccc3)[Co-2]3([O]2)[O]C(c2ccc(S(=O)(=O)N(CCC)CCC)cc2)=N[N+]3=CC=C2N(CC)c3ccc(OC)cc3C2(C)Cc2ccccc2)cc1 (centres unmarked) [Compound A-211] | completely dissolved | completely dissolved | – |
| CCN1C(=CC=[N+]2N=C(c3cccc(OCCOC)c3)[O][Co-2]23[O]C(c2cccc(OCCOC)c2)=N[N+]3=CC=C2N(CC)c3ccc(OC)cc3C2(C)Cc2ccccc2)C(C)(Cc2ccccc2)c2cc(OC)ccc21 (centres unmarked) [Compound A-212] | completely dissolved | completely dissolved | – |
| CN(C)c1ccc(C2=N/[N+](=C/c3ccccn3)[Co-2]3([O]2)[O]C(c2ccc(N(C)C)cc2)=N/[N+]3=C/c2ccccn2)cc1 [Compound B-4, reference compound] | the amount of insolubles was large | the amount of insolubles was large | – |
| [CH2-][N+]1=C\c2n(C)c3ccccc3[n+]2[Co-3]23([O]C(c4ccc(N(C)C)cc4)=N[N+]2=Cc2n(C)c4ccccc4[n+]23)[O]/C(c2ccc(N(C)C)cc2)=N\1 [Compound B-5, reference compound] | the amount of insolubles was large | the amount of insolubles was large | – |
| [CH2-][N+](=C\C=C\c1ccc(N(CC)CC)cc1)/N=C(\[O][Co-]1[O]C(c2c(C)cc(C)cc2C)=N/[N+]1=C/C=C/c1ccc(N(CC)CC)cc1)c1c(C)cc(C)cc1C [Compound B-6, reference compound] | the amount of insolubles was large | the amount of insolubles was large | – |
